# Experimental data as given in patent publication US6472530B1, “Benzo-fused dithiepino[6,5-b]pyridines, and related compositions and methods” (Ortho-McNeil Pharmaceutical, Inc., priority 1999, dated 2002).
# Target: T1, calcium channel (Oryctolagus cuniculus, UniProt P15381)
# T1 construct: from tissue; host or cells: rabbit heart membrane preparation
# Assay: Assay for Inhibition of Nitrendipine Binding (3H-nitrendipine, heart membranes)
# Design: species or system rabbit
# Settings: not given
# Protocol: Assay for Inhibition of Nitrendipine Binding
# Female, New Zealand white rabbits (1-2 kg) are sacrificed by cervical dislocation, and the heart is immediately removed, cleaned and chopped into small pieces. The tissue is homogenized in 5×times volume of 0.05M Hepes buffer, pH 7.4. The homogenate is centrifuged at 4000 g for 10 minutes, and the supernatant is re-centrifuged at 42,000×g for 90 minutes. The resulting membrane pellet is resuspended (0.7 ml/g weight) in 0.05M Hepes, pH 7.4 and stored at […] until used. Each tube of the binding assay contains ^3H-nitrendipine (0.05-0.50 nM), buffer, membranes (0.10 ml), and test compound in a total volume of 1.0 ml. After 90 minutes at 4° C., the bound nitrendipine is separated from the unbound by filtration on Whatman GF/C filters. After rinsing, the filters are dried and counted in a liquid scintillation counter.
# Non-specific binding of ^3H-nitrendipine (that amount bound in the presence of excess unlabelled nitrendipine) is subtracted from the total bound to obtain specifically bound radiolabeled nitrendipine. The amount of specifically bound nitrendipine in the presence of a test compound is compared to that amount bound in the absence of a compound. A percent displacement (or inhibition) can then be calculated.
# T1 sequence (P15381 whole entry, other chains not shown): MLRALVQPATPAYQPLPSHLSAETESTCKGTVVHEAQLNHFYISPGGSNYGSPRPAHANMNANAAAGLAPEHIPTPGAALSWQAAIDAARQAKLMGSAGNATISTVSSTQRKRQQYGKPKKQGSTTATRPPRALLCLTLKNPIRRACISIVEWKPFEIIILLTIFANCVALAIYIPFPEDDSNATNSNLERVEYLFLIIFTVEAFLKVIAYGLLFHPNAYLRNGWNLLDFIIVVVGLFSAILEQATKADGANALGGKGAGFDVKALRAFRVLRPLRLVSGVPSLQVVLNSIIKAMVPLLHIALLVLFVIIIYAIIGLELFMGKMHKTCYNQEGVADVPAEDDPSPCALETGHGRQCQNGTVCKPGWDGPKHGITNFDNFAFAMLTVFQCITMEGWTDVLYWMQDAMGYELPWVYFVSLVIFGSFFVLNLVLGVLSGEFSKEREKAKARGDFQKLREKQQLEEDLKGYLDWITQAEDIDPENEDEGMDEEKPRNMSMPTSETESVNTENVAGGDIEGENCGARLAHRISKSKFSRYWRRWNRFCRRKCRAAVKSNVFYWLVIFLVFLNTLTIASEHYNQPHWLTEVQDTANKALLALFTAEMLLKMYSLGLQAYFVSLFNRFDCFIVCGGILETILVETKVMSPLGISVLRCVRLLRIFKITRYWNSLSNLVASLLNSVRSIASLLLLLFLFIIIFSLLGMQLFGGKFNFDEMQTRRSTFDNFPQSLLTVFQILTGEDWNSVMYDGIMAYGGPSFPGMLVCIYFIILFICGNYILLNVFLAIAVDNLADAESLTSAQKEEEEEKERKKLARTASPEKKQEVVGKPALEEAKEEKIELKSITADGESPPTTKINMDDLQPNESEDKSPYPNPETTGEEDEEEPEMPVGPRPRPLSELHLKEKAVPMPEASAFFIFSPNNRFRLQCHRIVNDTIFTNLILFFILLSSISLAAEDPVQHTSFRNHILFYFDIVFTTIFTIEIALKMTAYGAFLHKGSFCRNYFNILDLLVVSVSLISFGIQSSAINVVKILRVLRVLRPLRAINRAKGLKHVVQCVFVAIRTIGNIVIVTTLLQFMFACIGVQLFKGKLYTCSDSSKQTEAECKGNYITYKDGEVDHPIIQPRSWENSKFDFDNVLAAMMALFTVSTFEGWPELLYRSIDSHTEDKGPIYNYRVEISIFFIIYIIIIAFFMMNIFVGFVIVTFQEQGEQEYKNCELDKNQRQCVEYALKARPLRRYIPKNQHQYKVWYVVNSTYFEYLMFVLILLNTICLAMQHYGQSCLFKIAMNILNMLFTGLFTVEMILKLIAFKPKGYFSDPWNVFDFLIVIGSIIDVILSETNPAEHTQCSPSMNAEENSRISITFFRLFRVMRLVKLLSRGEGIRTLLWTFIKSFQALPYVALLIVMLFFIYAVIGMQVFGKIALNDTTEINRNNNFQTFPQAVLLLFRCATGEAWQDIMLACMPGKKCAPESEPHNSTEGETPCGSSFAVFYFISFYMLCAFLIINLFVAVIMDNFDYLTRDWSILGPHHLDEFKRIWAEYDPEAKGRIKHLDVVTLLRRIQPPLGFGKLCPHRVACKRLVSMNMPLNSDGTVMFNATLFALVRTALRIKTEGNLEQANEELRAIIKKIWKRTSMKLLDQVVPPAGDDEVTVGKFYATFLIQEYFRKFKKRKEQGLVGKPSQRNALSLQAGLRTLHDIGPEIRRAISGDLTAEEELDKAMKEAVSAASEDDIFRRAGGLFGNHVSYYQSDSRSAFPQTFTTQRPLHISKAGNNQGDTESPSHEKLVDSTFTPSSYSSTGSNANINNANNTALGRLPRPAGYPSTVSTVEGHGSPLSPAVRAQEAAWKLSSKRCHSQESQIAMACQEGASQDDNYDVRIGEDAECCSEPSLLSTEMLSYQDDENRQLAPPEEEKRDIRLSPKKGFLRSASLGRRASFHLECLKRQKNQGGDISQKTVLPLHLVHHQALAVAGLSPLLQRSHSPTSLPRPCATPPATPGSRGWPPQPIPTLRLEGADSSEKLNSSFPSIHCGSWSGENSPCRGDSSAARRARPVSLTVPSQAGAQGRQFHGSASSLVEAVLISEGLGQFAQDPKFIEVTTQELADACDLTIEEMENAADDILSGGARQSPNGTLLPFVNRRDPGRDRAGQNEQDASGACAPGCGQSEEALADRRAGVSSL
# T1 sequence (P13806 27-960 partner limits assumed, other chains not shown): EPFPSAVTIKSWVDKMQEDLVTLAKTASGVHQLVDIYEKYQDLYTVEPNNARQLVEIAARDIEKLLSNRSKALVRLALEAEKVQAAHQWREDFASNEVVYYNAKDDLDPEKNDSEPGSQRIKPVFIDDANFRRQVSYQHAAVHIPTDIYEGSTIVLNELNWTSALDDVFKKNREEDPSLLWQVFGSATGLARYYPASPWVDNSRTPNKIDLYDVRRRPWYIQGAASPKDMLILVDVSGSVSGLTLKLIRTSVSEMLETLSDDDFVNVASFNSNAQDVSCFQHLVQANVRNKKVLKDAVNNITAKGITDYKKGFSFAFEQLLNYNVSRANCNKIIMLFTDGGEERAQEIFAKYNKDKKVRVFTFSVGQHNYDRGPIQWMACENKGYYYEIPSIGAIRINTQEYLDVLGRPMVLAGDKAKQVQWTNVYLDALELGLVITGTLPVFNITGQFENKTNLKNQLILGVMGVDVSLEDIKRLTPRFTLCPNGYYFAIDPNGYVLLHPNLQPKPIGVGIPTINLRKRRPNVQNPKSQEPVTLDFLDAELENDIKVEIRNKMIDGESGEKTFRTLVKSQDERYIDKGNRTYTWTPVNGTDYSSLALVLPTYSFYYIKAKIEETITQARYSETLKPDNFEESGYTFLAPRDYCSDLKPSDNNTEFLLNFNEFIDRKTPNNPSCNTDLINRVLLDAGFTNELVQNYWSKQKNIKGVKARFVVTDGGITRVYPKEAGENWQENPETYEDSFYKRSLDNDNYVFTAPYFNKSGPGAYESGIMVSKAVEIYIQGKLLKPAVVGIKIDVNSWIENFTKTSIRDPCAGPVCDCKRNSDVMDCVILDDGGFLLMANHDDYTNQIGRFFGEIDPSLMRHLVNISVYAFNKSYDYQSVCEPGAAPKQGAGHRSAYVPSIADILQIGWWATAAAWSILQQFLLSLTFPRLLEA
# T1 sequence (P13806 961-1106 partner limits assumed, other chains not shown): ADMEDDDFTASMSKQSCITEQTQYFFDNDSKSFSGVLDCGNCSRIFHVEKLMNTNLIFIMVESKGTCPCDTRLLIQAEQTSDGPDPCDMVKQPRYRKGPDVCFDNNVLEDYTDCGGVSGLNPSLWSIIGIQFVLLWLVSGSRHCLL
row,SMILES,IC50 [nM]
1,CC1=C(C(=O)OCCOC(=O)Cc2ccccc2)C(c2c(F)cccc2Cl)C2=C(CS(=O)(=O)c3ccccc3S2(=O)=O)N1 (stereo not shown) [Compound 30],110

# Same assay, conditions: Table 2, compounds of Formula II; 3H-nitrendipine displacement, rabbit heart membranes; read-out: Nitrendipine Binding IC50
row,SMILES,IC50 [nM]
1,"CC1=C(C(=O)OCCN)C(c2c(F)cccc2Cl)C2=C(CS(=O)(=O)c3ccccc3S2(=O)=O)N1 (stereo not shown) [Compound 26, 1H-[1,5]benzodithiepino[3,2-b]pyridine-3-carboxylic acid, 4-(2-chloro-6-fluorophenyl)-4,11-dihydro-2-methyl-, 2-aminoethyl ester, 5,5,10,10-tetraoxide]",2000
2,CC1=C(C(=O)OCCOC(=O)C(C)C)C(c2c(F)cccc2Cl)C2=C(CS(=O)(=O)c3ccccc3S2(=O)=O)N1 (stereo not shown) [Compound 27],26
3,"CC1=C(C(=O)OCCOC(=O)C(C)(C)C)C(c2c(F)cccc2Cl)C2=C(CS(=O)(=O)c3ccccc3S2(=O)=O)N1 (stereo not shown) [Compound 28, 1H-[1,5]benzodithiepino[3,2-b]pyridine-3-carboxylic acid, 4-(2-chloro-6-fluorophenyl)-4,11-dihydro-2-methyl-, 2-(2,2-dimethyl-1-oxopropoxy)ethyl ester, 5,5,10,10-tetraoxide]",370
4,"CC1=C(C(=O)OCCNC(=O)c2ccccc2)C(c2c(F)cccc2Cl)C2=C(CS(=O)(=O)c3ccccc3S2(=O)=O)N1 (stereo not shown) [Compound 29, 1H-[1,5]benzodithiepino[3,2-b]pyridine-3-carboxylic acid, 4-(2-chloro-6-fluorophenyl)-4,11-dihydro-2-methyl-, 2-(benzoylamino)ethyl ester, 5,5,10,10-tetraoxide]",859
5,"COc1ccc2cc([C@H](C)C(=O)OCCOC(=O)C3=C(C)NC4=C(C3c3c(F)cccc3Cl)S(=O)(=O)c3ccccc3S(=O)(=O)C4)ccc2c1 (stereo partly drawn) [Compound 31, 1H-[1,5]benzodithiepino[3,2-b]pyridine-3-carboxylic acid, 4-(2-chloro-6-fluorophenyl)-4,11-dihydro-2-methyl-, 2-[[(2S)-2-(6-methoxy-2-naphthalenyl)-1-oxopropyl]oxy]ethyl ester, 5,5,10,10-tetraoxide]",209
6,CC1=C(C(=O)OCCOC(=O)C(C)c2ccc(CC(C)C)cc2)C(c2c(F)cccc2Cl)C2=C(CS(=O)(=O)c3ccccc3S2(=O)=O)N1 (stereo not shown) [Compound 32],618
7,CC1=C(C(=O)OCCCO)C(c2c(F)cccc2Cl)C2=C(CS(=O)(=O)c3ccccc3S2(=O)=O)N1 (stereo not shown) [Compound 33],1440
8,CC1=C(C(=O)OCCCOC(=O)c2ccccc2)C(c2c(F)cccc2Cl)C2=C(CS(=O)(=O)c3ccccc3S2(=O)=O)N1 (stereo not shown) [Compound 34],188
9,CC1=C(C(=O)OCCOC(=O)CCCCCCc2ccccc2)C(c2c(F)cccc2Cl)C2=C(CS(=O)(=O)c3ccccc3S2(=O)=O)N1 (stereo not shown) [Compound 35],60
10,CC1=C(C(=O)OCCOC(=O)CCCCCCCCCc2ccccc2)C(c2c(F)cccc2Cl)C2=C(CS(=O)(=O)c3ccccc3S2(=O)=O)N1 (stereo not shown) [Compound 36],116000
11,"CC1=C(C(=O)OCCOC(=O)/C=C/c2ccccc2)C(c2c(F)cccc2Cl)C2=C(CS(=O)(=O)c3ccccc3S2(=O)=O)N1 (stereo not shown) [Compound 37, 1H-[1,5]benzodithiepino[3,2-b]pyridine-3-carboxylic acid, 4-(2-chloro-6-fluorophenyl)-4,11-dihydro-2-methyl-, 2-[[(2E)-1-oxo-3-phenyl-2-propenyl]oxy]ethyl ester, 5,5,10,10-tetraoxide]",101
12,CC1=C(C(=O)OCc2oc(=O)oc2-c2ccccc2)C(c2c(F)cccc2Cl)C2=C(CS(=O)(=O)c3ccccc3S2(=O)=O)N1 (stereo not shown) [Compound 40],11
